pKi: −log10 of the molar value.
Tests used:
[1] = Compound was evaluated for reversible inhibition of hydrolysis acetylcholine by acetylcholinesterase and represented as KI(noncompetitive)
[2] = Compound was evaluated for reversible inhibition of hydrolysis acetylcholine by acetylcholinesterase and represented as KI(competitive)
[3] = Compound was evaluated for reversible inhibition of hydrolysis of acetylcholine by acetylcholinesterase and represented as KI(competitive)
[4] = Compound was evaluated for reversible inhibition of hydrolysis acetylcholine by acetylcholinesterase and represented as KI(competitive); remark: listed apart in the source

SMILES	pKi [1]	pKi [2]	other results
CS(=O)(=O)CCO [2-Methanesulfonyl-ethanol]	1.00	2.06	
C[Si](C)(C)CCO [2-Trimethylsilanyl-ethanol]		2.48	
C[N+](C)(C)CCO [2-hydroxy-N,N,N-trimethylethanaminium]	2.12		
CC(C)(C)CCO [3,3-Dimethyl-butan-1-ol]	1.72		
CC(=O)CCC[N+](C)(C)[O-] [5-dimethylamino-2-pentanone-N-oxide]			pKi [3]: 1.85
CS(C)(I)CCO [(2-Hydroxy-ethyl)-dimethyl-sulfonium; iodide]	1.89		
CC(=O)OCCS(C)(=O)=O [Acetic acid 2-methanesulfonyl-ethyl ester]			pKi [4]: 2.19
C[S+](C)C [Trimethyl-sulfonium; iodide]	2.14	2.70	

Source: BindingDB's records for doi:10.1021/jm00147a033 (1985)
